Assays:
[1] = test system: Thy-1-induced nephritis models; conditions: prophylactic administration before induction of nephritis; cited from earlier work
[2] = test system: HUS; conditions: one case of HUS; cited from earlier work
[3] = test system: renal function impairment induced by uninephrectomy, high sodium loading and protein loading; conditions: cited from earlier work
[4] = test system: streptozotocin-induced diabetic nephropathy rats; conditions: cited from earlier work
[5] = test system: cats with chronic renal failure; test: Blood biochemical analysis and urinalysis (BUN, serum Cre, glucose) in cats with chronic renal failure; type: in vivo, cat; conditions: Case-F, male cat 11 y, diabetic nephropathy; protamine zinc insulin 2 units/BID, 2 months
Protocol: Testing methods for the patients showing uremia caused by chronic renal failure, employed in Example 4 or later, will now be described. The criteria and evaluation items for the cats and dogs with chronic renal failure are as follows: Diagnosis of uremia and chronic renal failure were performed totally taking clinical findings (including findings of uremia) and the results of the blood test, blood biochemical analysis and urinalysis into consideration. As the clinical findings of uremia, existence and degree of polydipsia and diuresis, dehydration, anorexia, weight loss, vomiting symptom and state of dehydration were observed. Existence of chronic renal failure was judged based on the serum Cre value as generally employed. As reference data for grasping the degree of progress of chronic renal failure, BUN value was also monitored.
In the blood test, RBC, WBC, PCV, Hg and PLT were measured. In the blood biochemical analysis, TP, Tcho, AST, ALT, ALP, Tbil, BUN, creatinine, calcium, inorganic phosphorus, glucose, sodium ion, potassium ion and chloride ion were measured. In the urinalysis, protein amount, pH, occult blood, bilirubin and glucose were measured. To eliminate the circadian rhythm and influence by meals on the values of blood biochemical markers, every blood collection was carried out in the morning before feeding (at fasting).
As a more specific criterion for chronic renal failure in cats and dogs in the present Examples, a serum Cre value of 1.4 mg/dL in the blood test was employed. Serum Cre value was measured by creatinine deaminase-amidohydrolase method, and the BUN value as reference data for grasping the degree of progress of chronic renal failure was measured by urease-GLDH method.
Administration of beraprost sodium was conducted by orally administering the tablet with a content of 150 μg/tablet (Example 1) twice a day (300 μg/head/day). The administration was conducted every day and continued basically for 6 months, and in cases where the owner desired, the administration was continued even after the test period. The Examples of the present invention include both cases where the dosing period was less than 6 months and more than 6 months.

[6] = test system: HUS; conditions: in vivo; cited from earlier work

For `CC#CCC(C)[C@H](O)/C=C/[C@@H]1[C@H]2C/C(=C/CCCC(=O)O)C[C@H]2C[C@H]1O` (stereo partly drawn) [iloprost], the urinary protein [1] is listed as “decreased” and the “improvement of the serum Cre value” [2] is listed as “effective”.
In the case of `CCC#CC[C@H](C)[C@H](O)C#C[C@@H]1[C@H]2C/C(=C/COCC(=O)O)C[C@H]2C[C@H]1O` [cicaprost], the renal function impairment [3] is given as “activity to reduce the renal function impairment” and the renal function impairment [4] is given as “activity to reduce the renal function impairment”.
With “insulin: protamine zinc insulin for treating diabetes” the fasting blood glucose [5] was 100 mg/dL.
In the case of `CCCCC[C@H](O)/C=C/[C@@H]1[C@H]2C/C(=C/CCCC(=O)O)O[C@H]2C[C@H]1O` [PGI2, prostaglandin I2], the “progress of HUS” value [6] is listed as “does not have an activity to inhibit the progress of HUS”.
